According to paper PMC8119899, “A Single Mutation in the Outer Lipid-Facing Helix of a Pentameric Ligand-Gated Ion Channel Affects Channel Function Through a Radially-Propagating Mechanism” (Frontiers in Molecular Biosciences, 2021):
Residue numbers refer to the chain shown, from its start.

Key:
5-HT3A receptor C290A = biological target: T1, 5-HT3A receptor C290A (Mus musculus, UniProt P23979, C317A); assay: Two-electrode voltage clamp, 5-HT response, C290A receptor in Xenopus oocytes; type: cell-based; settings: mean and SEM, n ≥ 3
T1 sequence (P23979 24-489 C317A): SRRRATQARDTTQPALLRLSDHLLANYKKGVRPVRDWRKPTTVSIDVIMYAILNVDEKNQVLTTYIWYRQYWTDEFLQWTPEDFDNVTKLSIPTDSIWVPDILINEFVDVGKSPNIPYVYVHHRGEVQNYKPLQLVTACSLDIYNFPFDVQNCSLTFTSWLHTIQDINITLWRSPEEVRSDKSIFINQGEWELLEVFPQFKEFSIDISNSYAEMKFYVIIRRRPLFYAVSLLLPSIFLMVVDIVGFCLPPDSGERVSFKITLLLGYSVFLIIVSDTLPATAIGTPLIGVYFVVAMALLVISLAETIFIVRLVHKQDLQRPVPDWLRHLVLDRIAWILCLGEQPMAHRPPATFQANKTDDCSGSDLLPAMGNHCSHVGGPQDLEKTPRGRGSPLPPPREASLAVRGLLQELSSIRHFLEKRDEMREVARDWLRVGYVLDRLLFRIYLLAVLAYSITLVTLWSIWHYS
Method: The mouse 5-HT3A cDNA (Q6J1J7) in pcDNA3.1 (for HEK cell transfection) or pGEMHE (for RNA production) was modified by QuikChange site-directed mutagenesis (Agilent Technologies) to create point mutants (verified by sequencing).
Xenopus laevis oocytes from EcoCyte Biosciences (Austin Texas) were injected with 100 pg cRNA (generated with the ThermoFisher mMESSAGE mMACHINE T7 transcription kit) and left in injection media [88 mM NaCl, 2.4 mM NaHCO3, 1 mM KCl, 0.82 mM MgSO4 ·7H20, 5 mM Tris-HCl, 0.33 mM Ca(NO3)2·4H2O, 0.41 mM CaCl2·2H2O, 2.51 mM sodium pyruvate, 0.12 mg/ml theophylline, 0.05 mg/ml gentamicin, pH 7.5] at 16 °C for 24 h. […] The holding potential was −60 mV, using glass microelectrodes with a resistance of approximately 1 MΩ backfilled with 3M KCl.

5-HT3A receptor Y441A = biological target: T2, 5-HT3A receptor Y441A (Mus musculus, UniProt P23979, Y468A); design: expressed in transfected cells; method as in Mesoy et al., [2019]; settings: HEK293 cells, ref Mesoy et al., [2019]; cited from earlier work
T2 sequence (P23979 24-489 Y468A): T1 sequence (P23979 24-489 C317A) with A294C, Y445A

NCCc1c[nH]c2ccc(O)cc12 [5-HT]
nH (5-HT3A receptor C290A): 0.5 ± 0.1 | response to application of 5-HT (5-HT3A receptor Y441A): Neither Y441A nor D238A responded
